Source: patent publication US12428406B2 (PMV Pharmaceuticals, Inc., priority 2019, dated 2025)

target: T1, p53 Y220C (Homo sapiens, UniProt P04637, Y220C); assay: In vitro DNA binding activity assay (HTRF / TR-FRET): stabilization of p53 Y220C and increase of its DNA binding activity; assay type: biochemical; conditions: recombinant His-tagged p53 Y220C DNA binding domain (aa 94-312), biotin-labeled consensus DNA, incubated at 27° C. or 29° C. for 60 min
T1 construct: The recombinant protein was a truncation mutant containing only amino acids 94-312 of p53; made in house; host or cells: E. coli
Outline: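 E. coli His-p53 Y220C + biotin consensus DNA; anti-His-APC/SA-Eu TR-FRET. SC150 vs no-compound.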

T1 sequence (P04637 94-312, change not shown): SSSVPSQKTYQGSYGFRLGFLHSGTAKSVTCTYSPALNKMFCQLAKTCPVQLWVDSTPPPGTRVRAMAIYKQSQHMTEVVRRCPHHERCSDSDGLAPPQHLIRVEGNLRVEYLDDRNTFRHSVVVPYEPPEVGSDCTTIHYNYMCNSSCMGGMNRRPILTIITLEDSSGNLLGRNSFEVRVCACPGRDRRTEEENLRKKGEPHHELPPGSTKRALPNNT

| SC150 (concentration of the compound required to increase the DNA binding activity by 50%) | Compound |
| --- | --- |
| + (+ = 0 μM ≤ SC150 < 0.05 μM) | COc1cc(C(=O)NC2CCN(C)CC2)ccc1NCC#Cc1cc2c(NC3CCN(C)CC3)cccc2n1CC(F)(F)F [Compound 498A] |
| + (+ = 0 μM ≤ SC150 < 0.05 μM) | CNC(=O)c1ccc(NCC#Cc2cc3c(NC4CCN(C[C@H](O)COC)CC4)cccc3n2CC(F)(F)F)c(OC)c1 [Compound 648A, 4-({3-[4-({1-[(2S)-2-hydroxy-3-methoxypropyl]piperidin-4-yl}amino)-1-(2,2,2-trifluoroethyl)-1H-indol-2-yl]prop-2-yn-1-yl}amino)-3-methoxy-N-methylbenzamide] |
| + (+ = 0 μM ≤ SC150 < 0.05 μM) | CNc1cc(S(C)(=O)=O)ccc1OCC#Cc1cc2c(N[C@H]3CC[C@H](N(C)C)CC3)cccc2n1CC(F)(F)F [Compound 109A, (1R,4R)-N^4-(2-{3-[4-methanesulfonyl-2-(methylamino)phenoxy]prop-1-yn-1-yl}-1-(2,2,2-trifluoroethyl)-1H-indol-4-yl)-N^1,N^1-dimethylcyclohexane-1,4-diamine] |
| + (+ = 0 μM ≤ SC150 < 0.05 μM) | COC[C@H](CN1CCC(Nc2cccc3c2cc(C#CCNc2ccc(S(C)(=O)=O)cc2OC)n3CC(F)(F)F)CC1)OC(=O)C(C)C [Compound 638A, (2S)-1-{4-[(2-{3-[(4-methanesulfonyl-2-methoxyphenyl)amino]prop-1-yn-1-yl}-1-(2,2,2-trifluoroethyl)-1H-indol-4-yl)amino]piperidin-1-yl}-3-methoxypropan-2-yl 2-methylpropanoate] |
| + (+ = 0 μM ≤ SC150 < 0.05 μM) | COc1cc(S(N)(=O)=O)ccc1NCC#Cc1cc2c(N[C@H]3CC[C@@H](N4C[C@H](O)[C@@H](O)C4)CC3)cccc2n1CC(F)(F)F [Compound 58A, 3-methoxy-4-{[3-(4-{[(1S,4S)-4-[(3S,4S)-3,4-dihydroxypyrrolidin-1-yl]cyclohexyl]amino}-1-(2,2,2-trifluoroethyl)-1H-indol-2-yl)prop-2-yn-1-yl]amino}benzene-1-sulfonamide] |
| + (+ = 0 μM ≤ SC150 < 0.05 μM) | CCC(=O)NS(=O)(=O)c1ccc(NCC#Cc2cc3c(NC4CCN(CC(O)COC)CC4)cccc3n2CC(F)(F)F)c(OC)c1 (centres unmarked) [Compound 607A, N-(4-{[3-(4-{[1-(2-hydroxy-3-methoxypropyl)piperidin-4-yl]amino}-1-(2,2,2-trifluoroethyl)-1H-indol-2-yl)prop-2-yn-1-yl]amino}-3-methoxybenzenesulfonyl) propanamide] |
| + (+ = 0 μM ≤ SC150 < 0.05 μM) | COc1cc(S(N)(=O)=O)ccc1NCC#Cc1cc2c(N[C@H]3CC[C@H](N4CCC(S(C)(=O)=O)CC4)CC3)cccc2n1CC(F)(F)F [Compound 446A, 3-methoxy-4-{[3-(4-{[(1R,4R)-4-(4-methanesulfonyl-piperidin-1-yl)cyclo-hexyl]amino}-1-(2,2,2-trifluoroethyl)-1H-indol-2-yl)prop-2-yn-1-yl]amino}benzene-1-sulfonamide] |
| + (+ = 0 μM ≤ SC150 < 0.05 μM) | COc1cc(C(=O)O)ccc1NCC#Cc1cc2c(N[C@@H]3CCN(CC(N)=O)C[C@@H]3F)cccc2n1CC(F)(F)F [Compound 926A] |
| + (+ = 0 μM ≤ SC150 < 0.05 μM) | Cc1cc(S(C)(=O)=O)ccc1NCC#Cc1cc2c(N[C@H]3CC[C@H](N(C)C)CC3)cccc2n1CC(F)(F)F [Compound 140A] |
| + (+ = 0 μM ≤ SC150 < 0.05 μM) | COc1cc(S(=O)(=O)N2CCN(C)CC2)ccc1NCC#Cc1cc2c(NC3CCOCC3)cccc2n1CC(F)(F)F [Compound 1011A, 2-[3-({2-methoxy-4-[(4-methylpiperazin-1-yl)sulfonyl]phenyl}amino)prop-1-yn-1-yl]-N-(oxan-4-yl)-1-(2,2,2-trifluoroethyl)-1H-indol-4-amine] |
| + (+ = 0 μM ≤ SC150 < 0.05 μM) | COc1cc(S(N)(=O)=O)ccc1NCC#Cc1cc2c(N[C@H]3CC[C@@H](N4CC5(COC5)C4)CC3)cccc2n1CC(F)(F)F [Compound 204A, 3-methoxy-4-{[3-(4-{[(1R,4R)-4-{2-oxa-6-azaspiro[3.3]heptan-6-yl}cyclohexyl]amino}-1-(2,2,2-trifluoroethyl)-1H-indol-2-yl)prop-2-yn-1-yl]amino}benzene-1-sulfonamide] |
| + (+ = 0 μM ≤ SC150 < 0.05 μM) | CNC(=O)c1ccc(NCC#Cc2cc3c(N[C@H]4CC[C@H](N5CC6(CCOCC6)C5)CC4)cccc3n2CC(F)(F)F)c(OC)c1 [Compound 295A, 3-methoxy-N-methyl-4-{[3-(4-{[(1R,4R)-4-{7-oxa-2-azaspiro[3.5]nonan-2-yl}cyclo-hexyl]amino}-1-(2,2,2-trifluoroethyl)-1H-indol-2-yl)prop-2-yn-1-yl]amino}benzamide] |
| + (+ = 0 μM ≤ SC150 < 0.05 μM) | COc1cc(C(=O)N[C@H](C)CO)ccc1NCC#Cc1cc2c(N[C@@H]3CCN(C)C[C@@H]3F)cccc2n1CC(F)(F)F [Compound 950A, 4-{[3-(4-{[(3S,4R)-3-fluoro-1-methylpiperidin-4-yl]amino}-1-(2,2,2-trifluoroethyl)-1H-indol-2-yl)prop-2-yn-1-yl]amino}-N-[(2R)-1-hydroxypropan-2-yl]-3-methoxybenzamide] |
| + (+ = 0 μM ≤ SC150 < 0.05 μM) | COc1cc(S(C)(=O)=O)ccc1NCC#Cc1cc2c(N[C@H]3CC[C@H](N4CCC(OC)CC4)CC3)cccc2n1CC(F)(F)F [Compound 350A, 2-{3-[(4-methane-sulfonyl-2-methoxy-phenyl)amino]prop-1-yn-1-yl}-N-[(1R,4R)-4-(4-methoxypiperidin-1-yl)cyclohexyl]-1-(2,2,2-trifluoroethyl)-1H-indol-4-amine] |
| + (+ = 0 μM ≤ SC150 < 0.05 μM) | COc1cc(C(N)=O)ccc1NCC#Cc1cc2c(N[C@H]3CCN(C)C[C@H]3F)cccc2n1CC(F)(F)F (racemic) [Compound 782A, rac-4-{[3-(4-{[(3R,4S)-3-fluoro-1-methylpiperidin-4-yl]amino}-1-(2,2,2-trifluoroethyl)-1H-indol-2-yl)prop-2-yn-1-yl]amino}-3-methoxybenzamide] |
| + (+ = 0 μM ≤ SC150 < 0.05 μM) | COc1cc(S(=O)(=O)Nc2ccon2)ccc1NCC#Cc1cc2c(NC3CCOCC3)cccc2n1CC(F)(F)F [Compound 992A, 3-methoxy-4-[(3-{4-[(oxan-4-yl)amino]-1-(2,2,2-trifluoroethyl)-1H-indol-2-yl}prop-2-yn-1-yl)amino]-N-(1,2-oxazol-3-yl)benzene-1-sulfonamide] |
| + (+ = 0 μM ≤ SC150 < 0.05 μM) | COc1cc(S(C)(=O)=O)ccc1NCC#Cc1cc2c(N[C@@H]3CCN(C(C)(C)C)C[C@@H]3F)cccc2n1CC(F)(F)F [Compound 1068A, N-((3S,4R)-1-(tert-butyl)-3-fluoropiperidin-4-yl)-2-(3-((2-methoxy-4-(methylsulfonyl)phenyl)amino)prop-1-yn-1-yl)-1-(2,2,2-trifluoroethyl)-1H-indol-4-amine] |
| + (+ = 0 μM ≤ SC150 < 0.05 μM) | CNC(=O)c1ccc(NCC#Cc2cc3c(N[C@H]4CC[C@H](N(C)C)CC4)cccc3n2CC(F)(F)F)c(OCC#N)c1 [Compound 113A, 3-(cyanomethoxy)-N-methyl-4-{[3-(4-{[(1R,4R)-4-(dimethyl-amino)cyclohexyl]amino}-1-(2,2,2-trifluoro-ethyl)-1H-indol-2-yl)prop-2-yn-1-yl]amino}benzamide] |
| + (+ = 0 μM ≤ SC150 < 0.05 μM) | CN1CCC(Nc2cccc3c2cc(C#CCNc2ccc(CN4CCOCC4)cc2)n3CC(F)(F)F)CC1 [Compound 508A, N-(1-methylpiperidin-4-yl)-2-[3-({4-[(morpholin-4-yl)methyl]phenyl}amino)prop-1-yn-1-yl]-1-(2,2,2-trifluoroethyl)-1H-indol-4-amine] |
| + (+ = 0 μM ≤ SC150 < 0.05 μM) | CNC(=O)c1ccc(NCC#Cc2cc3c(N[C@H]4CC[C@H](NC)CC4)cccc3n2CC(F)(F)F)c(OC)c1 [Compound 23A, 3-methoxy-N-methyl-4-{[3-(4-{[(1R,4R)-4-(methylamino)cyclo-hexyl]amino}-1-(2,2,2-trifluoroethyl)-1H-indol-2-yl)prop-2-yn-1-yl]amino}benzamide] |
| + (+ = 0 μM ≤ SC150 < 0.05 μM) | COc1cc(S(C)(=O)=O)ccc1NCC#Cc1cc2c(N[C@H]3CC[C@H](N4CCC5(CCOC5)CC4)CC3)cccc2n1CC(F)(F)F [Compound 410A, 2-{3-[(4-methane-sulfonyl-2-methoxy-phenyl)amino]prop-1-yn-1-yl}-N-[(1R,4R)-4-{2-oxa-8-azaspiro[4.5]decan-8-yl}cyclohexyl]-1-(2,2,2-trifluoroethyl)-1H-indol-4-amine] |
| + (+ = 0 μM ≤ SC150 < 0.05 μM) | COC(=O)c1ccc(NCC#Cc2cc3c(N[C@H]4CCN(C)C[C@H]4F)cccc3n2CC(F)(F)F)c(OC)c1 (stereo in doubt) [Compound 794A, methyl 4-{[3-(4-{[(3R,4S)-3-fluoro-1-methylpiperidin-4-yl]amino}-1-(2,2,2-trifluoroethyl)-1H-indol-2-yl)prop-2-yn-1-yl]amino}-3-methoxybenzoate] |
| + (+ = 0 μM ≤ SC150 < 0.05 μM) | COc1cc(S(N)(=O)=O)ccc1NCC#Cc1cc2c(N[C@H]3CC[C@@H](N(CCO)CCO)CC3)cccc2n1CC(F)(F)F [Compound 45A, 3-methoxy-4-{[3-(4-{[(1S,4S)-4-[bis(2-hydroxyethyl)amino]cyclohexyl]amino}-1-(2,2,2-trifluoroethyl)-1H-indol-2-yl)prop-2-yn-1-yl]amino}benzene-1-sulfonamide] |
